Laboratory results: ChEMBL document CHEMBL1641568, “An on-bead assay for the identification of non-natural peptides targeting the androgen receptor-cofactor interaction” (Bioorg Med Chem, 2011)
Square brackets hold non-standard residues; d marks the D form. Peptide text beside a SMILES is read from it. Phe(4-Cl) = N[C@@H](Cc1ccc(Cl)cc1)C(=O)O; 2Nal = N[C@@H](Cc1ccc2ccccc2c1)C(=O)O; Cha = N[C@@H](CC1CCCCC1)C(=O)O

Experiment: Inhibition of human GST-tagged androgen receptor-ligand binding domain/cofactor interaction assessed as fluorescence polarization by competition assay

Compound	Ki [nM]
CC(C)C[C@H](NC(=O)[C@H](CCCNC(=N)N)NC(=O)[C@H](CO)NC(=O)[C@@H](N)CO)C(=O)N[C@@H](CCC(=O)O)C(=O)N[C@@H](CO)C(=O)N[C@@H](Cc1c[nH]c2ccccc12)C(=O)N[C@@H](Cc1ccc(Cl)cc1)C(=O)N[C@@H](C)C(=O)NCC(=O)N[C@@H](CCC(=O)O)C(=O)N[C@@H](CCCCN)C(=O)N[C@@H](CCC(=O)O)C(=O)N[C@@H](CO)C(=O)N[C@@H](CCCNC(=N)N)C(=O)NCC(=O)O (H-SSRLESW[Phe(4-Cl)]AGEKESRG-OH)	166000
CC(C)C[C@H](NC(=O)[C@H](CO)NC(=O)[C@H](CCC(=O)O)NC(=O)[C@H](Cc1ccc2ccccc2c1)NC(=O)[C@H](CCCNC(=N)N)NC(=O)[C@H](CO)NC(=O)[C@@H](N)CO)C(=O)N[C@@H](Cc1c[nH]c2ccccc12)C(=O)N[C@@H](C)C(=O)NCC(=O)N[C@@H](CCC(=O)O)C(=O)N[C@@H](CCCCN)C(=O)N[C@@H](CCC(=O)O)C(=O)N[C@@H](CO)C(=O)N[C@@H](CCCNC(=N)N)C(=O)NCC(=O)O (H-SSR[2Nal]ESLWAGEKESRG-OH)	3680
C[C@H](NC(=O)[C@H](Cc1c[nH]c2ccccc12)NC(=O)[C@H](CC1CCCCC1)NC(=O)[C@H](CO)NC(=O)[C@H](CCC(=O)O)NC(=O)[C@H](Cc1ccc2ccccc2c1)NC(=O)[C@H](CCCNC(=N)N)NC(=O)[C@H](CO)NC(=O)[C@@H](N)CO)C(=O)NCC(=O)N[C@@H](CCC(=O)O)C(=O)N[C@@H](CCCCN)C(=O)N[C@@H](CCC(=O)O)C(=O)N[C@@H](CO)C(=O)N[C@@H](CCCNC(=N)N)C(=O)NCC(=O)O (H-SSR[2Nal]ES[Cha]WAGEKESRG-OH)	470
H-SSRFESLFAGEKESRG-OH	760
H-SSRFESWFAGEKESRG-OH	940

The next lines start with the values.

Ki [nM]	Compound
2440	C[C@H](NC(=O)[C@H](CC1CCCCC1)NC(=O)[C@H](Cc1ccccc1)NC(=O)[C@H](CO)NC(=O)[C@H](CCC(=O)O)NC(=O)[C@H](Cc1c[nH]c2ccccc12)NC(=O)[C@H](CCCNC(=N)N)NC(=O)[C@H](CO)NC(=O)[C@@H](N)CO)C(=O)NCC(=O)N[C@@H](CCC(=O)O)C(=O)N[C@@H](CCCCN)C(=O)N[C@@H](CCC(=O)O)C(=O)N[C@@H](CO)C(=O)N[C@@H](CCCNC(=N)N)C(=O)NCC(=O)O (H-SSRWESF[Cha]AGEKESRG-OH)
82900	H-SSRWESWFAGEKESRG-OH
